{"source": "patent EP4803511A1", "about": "“SMALL MOLECULE COMPOUND HAVING SULFONIC ACID OR SULFINIC ACID LACTONE STRUCTURE, COMPOSITION AND USE THEREOF” (Hangzhou Phecdamed Co., Ltd., priority 2023, dated 2025)", "key": {"[1]": {"tested_on": "wild-type AB strain zebrafish", "assay": "Zebrafish model, relieving anti-inflammatory efficacy (copper sulfate-induced, inflammatory cells at the neurothalamus)", "type": "in vivo", "details": "zebrafish 3 dpf, 40 µM copper sulfate model; effective concentrations 7.4, 22.2, and 66.6 µg/mL", "experimental": "(§1) Experimental animal: Healthy wild-type AB strain zebrafish at 3 dpf (days post fertilization)\nEvaluation of the relieving stinging efficacy: Healthy AB strain zebrafish were taken and randomly divided into four groups: blank control, modeling group, positive control, and sample group. […] After continuous treatment for a certain period, the zebrafish's behavioral trajectories were recorded using a behavior analyzer, and the changes in total movement distance and speed were statistically analyzed, the results are shown in FIGS. 2-4. […]\nEvaluation of the relieving anti-inflammatory efficacy: As described above, the modeling drug was 40 µM copper sulfate, the positive control drug was 200 µM asiaticoside, and the concentrations of I-8 were 66.6, 22.2, and 7.4 µg/mL respectively. After treating zebrafish as described above, inflammatory cells in their bodies were stained, the number of inflammatory cells at the neurothalamus was counted, and statistical analysis was performed."}, "[2]": {"assay": "Kinetic solubility in aqueous buffer", "type": "physicochemical", "details": "2 hrs at 25 °C", "experimental": "Experimental Methods: 30 µL of the 10 mM DMSO stock solution of the compound to be test was placed in a solubility sample plate (duplicate), 970 µL of aqueous buffer solution was added to the plate, and the plate was sealed with a sealing membrane and shaken at 1100 rpm for 2 hrs at 25 °C. The sample in the solubility plate was transferred to a filter plate, and filtered to obtain a filtrate. 10 µL of the filtrate was transferred into 980 µL of methanol along with 10 µL of DMSO, and then the solution was diluted 10-fold with methanol:water (1:1), and the resulting sample was analyzed by LC-MS/MS to obtain Area (filtered). Separately, 10 mM of the DMSO stock solution of the compound to be test was diluted to 300 µM with DMSO. 10 µL of this 300 µM DMSO solution and 10 µL of aqueous buffer solution were added into 980 µL of methanol, and then diluted 10-fold with methanol:water (1:1), and the resulting sample was analyzed by LC-MS/MS to obtain Area (std). The kinetic solubility was calculated according to the following formula: Solubility(μM) = (Areafiltered × DFfiltered)/(Areastd × DFstd) × [std] × DFstd [formula] wherein DF is the dilution factor."}, "[3]": {"tested_on": "wild-type AB strain zebrafish", "assay": "Zebrafish tail amputation model, wound repair efficacy (caudal fin area)", "type": "in vivo", "details": "I-8 at 1, 3, and 9 µg/mL, 48 hrs; compared with the modeling group, statistical significance", "experimental": "as §1\n(§2) Evaluation of wound repair efficacy: Healthy AB strain zebrafish were taken as experimental animal, and randomly divided into blank control group, modeling group, positive control group, and sample group. The zebrafish in the blank control group were treated with culture water; the zebrafish in the modeling group were treated with culture water after cutting the caudal fin; the zebrafish in the positive control group and sample group were treated with 600 µg/mL hyaluronic acid and I-8 with different concentrations (1, 3, 9 µg/mL) respectively after cutting the caudal fin. The larva fish in above groups were placed in a constant temperature incubator at 28.5 °C and kept in continuous darkness for 48 hrs, with the culture medium changed once every 24 hrs. Image-Pro Plus software was used to calculate the area of the caudal fin of each group of zebrafish. The data were statistically analyzed using GraphPad software."}, "[4]": {"tested_on": "wild-type AB strain zebrafish", "assay": "Zebrafish tail amputation model, inflammatory repair efficacy (inflammatory cells at the broken tail)", "type": "in vivo", "details": "I-8 at 1, 3, and 9 µg/mL, 48 hrs; compared with the modeling group, statistical significance", "experimental": "as §1\nas §2, with “Image-Pro Plus software was used to calculate the area of the caudal fin of each group of zebrafish.” left out\nEvaluation of inflammatory repair efficacy: As described above, the larva fish in each group were placed in a constant temperature incubator at 28.5 °C and kept in continuous darkness for 48 hrs. Inflammatory cells in the fish body were labeled with neutral red, and the number of inflammatory cells at the broken tail was counted. The data were statistically analyzed using GraphPad software."}, "TRPV1": {"tested_on": "TRPV1", "assay": "TRPV1 gene expression in HaCaT after capsaicin stimulation (q-PCR)", "type": "cell-based, human", "details": "15 µM capsaicin, dose-dependent", "text": "In the following Test Examples 6-1 and 6-2, using immortalized keratinocytes (HaCaT) and UVB to establish a model, after the compound to be test was applied to HaCaT, the expression levels of TNF-α, IL-8, IL-1β and EP2 were detected; using immortalized keratinocytes (HaCaT) and capsaicin to establish a model, after the compound to be test was applied to HaCaT, the expression level of TRPV1 was detected, so as to evaluate the soothing effect of the test substance from multiple dimensions.\n• 1) Cell inoculation: HaCaT cells were inoculated into a 6-well plate at 6 × 10^5/well, cultured in an incubator (37 °C, 5% CO2) for 12 hrs, and a normal control group (0 µM capsaicin + vehicle control), a model control group […] concentration group (15 µM capsaicin + low concentration compound), a medium concentration group (15 µM capsaicin + medium concentration compound), and a high concentration group (15 µM capsaicin + high concentration compound) were respectively provided. • 2) Induction and administration: The culture solution in the 6-well plate was discarded and the administration operation was carried out. The culture solution containing the test substance and the capsaicin stock solution was added according to the above drug group, and 1 mL was added to each well. […]"}}, "data": [{"smiles": "O=S1(=O)Oc2cc(O)ccc2-c2ccc(O)cc21", "note": "[Compound I-8]", "values": [{"measurement": "relieving anti-inflammatory efficacy", "setting": "[1]", "result": "certain relieving anti-inflammatory efficacy"}, {"measurement": "solubility kinetic at 2 h", "setting": "[2]", "result": "> 300", "unit": "µM"}, {"measurement": "caudal fin area", "setting": "[3]", "result": "increased"}, {"measurement": "number of inflammatory cells at the wound", "setting": "[4]", "result": "decreased"}, {"measurement": "expression level of TRPV1", "setting": "TRPV1", "result": "downregulating"}]}]}
